From publication PMC9112550, “Optimization of the antimicrobial peptide Bac7 by deep mutational scanning” (BMC Biology, 2022)

Tested on: E. coli TOP10
Assay: Single-strain growth experiments, intracellular peptide expression
Type: cell-based
Settings: negative control, expressed in E. coli TOP10
Experimental: To assess the antimicrobial activity of single peptides when expressed intracellularly in E. coli TOP10, a monoclonal strain carrying the pBAD plasmid containing a single peptide gene was picked from solid media, incubated overnight, and inoculated into a fresh LB medium containing 0.3% (w/v) L-arabinose to a final OD of 0.01 into 96-well microtiter plate (Greiner). Growth of strains was recorded by measuring OD in a Tecan Infinite 200 PRO (Tecan, Männedorf, CH) for at least 4 h (37°C, 1.5 mm orbital shaking).

Substance: HNP-1: inactive peptide HNP-1 expressed as the negative control
- activity on intracellular expression: inactive
